Organism: Rattus norvegicus
Experiment: Open TG-GATES - Regimen: Single
Assay type: toxicity, organism-based, Sprague-Dawley
Parameters: regimen Single, gender Male, age 6 weeks
Details: in vivo, po, route gavage; for gamma-GTP / ALT / AST / BUN / CRE / Ca / Cl / DBIL / GLC / IP / K / LDH / Na / PL / RALB / TBIL / TC / TP: tissue Plasma; for Bas / Eos / Fbg / Hb / Ht / Lym / MCHC / MCV / Mono / Neu / Plat / RBC / Ret / WBC: tissue Blood; for KIDNEY_TOTAL: tissue Kidney; for LIVER: tissue Liver
[1] = 50 mg/kg, 24 h, dose level High

C[C@@H]1C[C@H]2[C@@H]3CCC4=CC(=O)C=C[C@]4(C)[C@@]3(F)[C@@H](O)C[C@]2(C)[C@@]1(O)C(=O)CO [DEXAMETHASONE] showed a gamma-GTP (5 mg/kg, 24 h, dose level Middle) of 0 IU/L, a TERMINAL_BW (50 mg/kg, 3 h, dose level High) of 214.6 g and a Bas (50 mg/kg, 3 h, dose level High) of 0%. For the same compound, the Eos (50 mg/kg, 3 h, dose level High) was 0.8%, the Fbg (50 mg/kg, 3 h, dose level High) was 244.4 mg/dL and the Hb (50 mg/kg, 3 h, dose level High) was 13.1 g/dL. The Ht (50 mg/kg, 3 h, dose level High) was 40.1%, the Lym (50 mg/kg, 3 h, dose level High) was 58% and the MCHC (50 mg/kg, 3 h, dose level High) was 32.5%. For the same compound, the MCV (50 mg/kg, 3 h, dose level High) was 63.1 fL, the Mono (50 mg/kg, 3 h, dose level High) was 2.8% and the Neu (50 mg/kg, 3 h, dose level High) was 38.8%. It also gave a Plat (50 mg/kg, 3 h, dose level High) of 125.2 x10_4/uL, an RBC (50 mg/kg, 3 h, dose level High) of 635.6 x10_4/ul and a Ret (50 mg/kg, 3 h, dose level High) of 7.4%. The WBC (50 mg/kg, 3 h, dose level High) was 35.1 x10_2/uL, the KIDNEY_TOTAL (50 mg/kg, 3 h, dose level High) was 0.6 g and the LIVER (50 mg/kg, 3 h, dose level High) was 10.7 g. For the same compound, the ALT (50 mg/kg, 3 h, dose level High) was 40.4 IU/L, the AST (50 mg/kg, 3 h, dose level High) was 75.2 IU/L and the BUN (50 mg/kg, 3 h, dose level High) was 15.6 mg/dL. It also gave a CRE (50 mg/kg, 3 h, dose level High) of 0.4 mg/dL, a Ca (50 mg/kg, 3 h, dose level High) of 11.3 mg/dL and a Cl (50 mg/kg, 3 h, dose level High) of 103.2 meq/L. For the same compound, the DBIL (50 mg/kg, 3 h, dose level High) was 0.012 mg/dL, the GLC (50 mg/kg, 3 h, dose level High) was 198.8 mg/dL and the IP (50 mg/kg, 3 h, dose level High) was 11.5 mg/dL. The K (50 mg/kg, 3 h, dose level High) was 3.9 meq/L, the LDH (50 mg/kg, 3 h, dose level High) was 85.4 IU/L and the Na (50 mg/kg, 3 h, dose level High) was 142 meq/L. It also gave a PL (50 mg/kg, 3 h, dose level High) of 152.8 mg/dL, an RALB (50 mg/kg, 3 h, dose level High) of 4.3 g/dL and a TBIL (50 mg/kg, 3 h, dose level High) of 0.04 mg/dL. It also gave a TC (50 mg/kg, 3 h, dose level High) of 91 mg/dL, a TP (50 mg/kg, 3 h, dose level High) of 6.1 g/dL and a gamma-GTP (50 mg/kg, 3 h, dose level High) of 1 IU/L. The TERMINAL_BW (50 mg/kg, 6 h, dose level High) was 208.4 g, the Bas (50 mg/kg, 6 h, dose level High) was 0% and the Eos (50 mg/kg, 6 h, dose level High) was 0%. It also gave a Fbg (50 mg/kg, 6 h, dose level High) of 244.4 mg/dL, a Hb (50 mg/kg, 6 h, dose level High) of 13.3 g/dL and a Ht (50 mg/kg, 6 h, dose level High) of 40.4%. It also gave a Lym (50 mg/kg, 6 h, dose level High) of 61.8%, an MCHC (50 mg/kg, 6 h, dose level High) of 32.9% and an MCV (50 mg/kg, 6 h, dose level High) of 63.8 fL. The Mono (50 mg/kg, 6 h, dose level High) was 3.4%, the Neu (50 mg/kg, 6 h, dose level High) was 34.4% and the Plat (50 mg/kg, 6 h, dose level High) was 119.3 x10_4/uL. It also gave an RBC (50 mg/kg, 6 h, dose level High) of 634 x10_4/ul, a Ret (50 mg/kg, 6 h, dose level High) of 7.1% and a WBC (50 mg/kg, 6 h, dose level High) of 26.8 x10_2/uL. For the same compound, the KIDNEY_TOTAL (50 mg/kg, 6 h, dose level High) was 0.5 g, the LIVER (50 mg/kg, 6 h, dose level High) was 10.5 g and the ALT (50 mg/kg, 6 h, dose level High) was 40.8 IU/L. For the same compound, the AST (50 mg/kg, 6 h, dose level High) was 83 IU/L, the BUN (50 mg/kg, 6 h, dose level High) was 16.2 mg/dL and the CRE (50 mg/kg, 6 h, dose level High) was 0.4 mg/dL. It also gave a Ca (50 mg/kg, 6 h, dose level High) of 11.4 mg/dL, a Cl (50 mg/kg, 6 h, dose level High) of 104.6 meq/L and a DBIL (50 mg/kg, 6 h, dose level High) of 0.01 mg/dL. The GLC (50 mg/kg, 6 h, dose level High) was 215.2 mg/dL, the IP (50 mg/kg, 6 h, dose level High) was 8.1 mg/dL and the K (50 mg/kg, 6 h, dose level High) was 4.1 meq/L. For the same compound, the LDH (50 mg/kg, 6 h, dose level High) was 80.6 IU/L, the Na (50 mg/kg, 6 h, dose level High) was 140.2 meq/L and the PL (50 mg/kg, 6 h, dose level High) was 157.6 mg/dL. The RALB (50 mg/kg, 6 h, dose level High) was 4.6 g/dL, the TBIL (50 mg/kg, 6 h, dose level High) was 0.036 mg/dL and the TC (50 mg/kg, 6 h, dose level High) was 106.4 mg/dL. The TP (50 mg/kg, 6 h, dose level High) was 6.5 g/dL, the gamma-GTP (50 mg/kg, 6 h, dose level High) was 0 IU/L and the TERMINAL_BW (50 mg/kg, 9 h, dose level High) was 200.5 g. The Bas (50 mg/kg, 9 h, dose level High) was 0%, the Eos (50 mg/kg, 9 h, dose level High) was 0% and the Fbg (50 mg/kg, 9 h, dose level High) was 244.6 mg/dL. It also gave a Hb (50 mg/kg, 9 h, dose level High) of 13.5 g/dL, a Ht (50 mg/kg, 9 h, dose level High) of 41% and a Lym (50 mg/kg, 9 h, dose level High) of 42.8%. It also gave an MCHC (50 mg/kg, 9 h, dose level High) of 32.9%, an MCV (50 mg/kg, 9 h, dose level High) of 64.5 fL and a Mono (50 mg/kg, 9 h, dose level High) of 2%. For the same compound, the Neu (50 mg/kg, 9 h, dose level High) was 55.2%, the Plat (50 mg/kg, 9 h, dose level High) was 121.9 x10_4/uL and the RBC (50 mg/kg, 9 h, dose level High) was 636.2 x10_4/ul. For the same compound, the Ret (50 mg/kg, 9 h, dose level High) was 5.4%, the WBC (50 mg/kg, 9 h, dose level High) was 15.4 x10_2/uL and the KIDNEY_TOTAL (50 mg/kg, 9 h, dose level High) was 0.5 g. For the same compound, the LIVER (50 mg/kg, 9 h, dose level High) was 10.8 g, the ALT (50 mg/kg, 9 h, dose level High) was 39 IU/L and the AST (50 mg/kg, 9 h, dose level High) was 78.2 IU/L. It also gave a BUN (50 mg/kg, 9 h, dose level High) of 18.2 mg/dL, a CRE (50 mg/kg, 9 h, dose level High) of 0.4 mg/dL and a Ca (50 mg/kg, 9 h, dose level High) of 10.6 mg/dL. The Cl (50 mg/kg, 9 h, dose level High) was 103.2 meq/L, the DBIL (50 mg/kg, 9 h, dose level High) was 0.01 mg/dL and the GLC (50 mg/kg, 9 h, dose level High) was 238.8 mg/dL. For the same compound, the IP (50 mg/kg, 9 h, dose level High) was 6.6 mg/dL, the K (50 mg/kg, 9 h, dose level High) was 4.2 meq/L and the LDH (50 mg/kg, 9 h, dose level High) was 83.4 IU/L. The Na (50 mg/kg, 9 h, dose level High) was 138 meq/L, the PL (50 mg/kg, 9 h, dose level High) was 177.6 mg/dL and the RALB (50 mg/kg, 9 h, dose level High) was 4.6 g/dL. For the same compound, the TBIL (50 mg/kg, 9 h, dose level High) was 0.032 mg/dL, the TC (50 mg/kg, 9 h, dose level High) was 105.6 mg/dL and the TP (50 mg/kg, 9 h, dose level High) was 6.5 g/dL. The gamma-GTP (50 mg/kg, 9 h, dose level High) was 0.8 IU/L, the TERMINAL_BW [1] was 218.5 g and the Bas [1] was 0%. The Eos [1] was 1.2%, the Fbg [1] was 231 mg/dL and the Hb [1] was 13.8 g/dL. It also gave a Ht [1] of 42.2%, a Lym [1] of 13.8% and an MCHC [1] of 32.8%. It also gave an MCV [1] of 63.1 fL, a Mono [1] of 7.2% and a Neu [1] of 78.4%. The Plat [1] was 129.6 x10_4/uL, the RBC [1] was 667.6 x10_4/ul and the Ret [1] was 4.6%. The WBC [1] was 26.2 x10_2/uL, the KIDNEY_TOTAL [1] was 0.3 g and the LIVER [1] was 14.3 g. It also gave an ALT [1] of 52.8 IU/L, an AST [1] of 102.2 IU/L and a BUN [1] of 19.2 mg/dL. The CRE [1] was 0.5 mg/dL, the Ca [1] was 11.2 mg/dL and the Cl [1] was 99.8 meq/L. For the same compound, the DBIL [1] was 0.018 mg/dL, the GLC [1] was 273.2 mg/dL and the IP [1] was 6.7 mg/dL. For the same compound, the K [1] was 4.6 meq/L, the Na [1] was 138.8 meq/L and the PL [1] was 260.8 mg/dL. The RALB [1] was 4.6 g/dL, the TBIL [1] was 0.042 mg/dL and the TC [1] was 120.4 mg/dL. The TP [1] was 6.5 g/dL and the gamma-GTP [1] was 0.4 IU/L.

Source: ChEMBL document CHEMBL3885861, “Open TG-GATES”
